Where a name gives a salt, the structure may show the parent alone. Read-outs that look alike come from different tables or passages of the source.
Legend:
[1] = system: HUVECs; experiment: High-content imaging cytotoxicity in HUVECs, 24 h; assay type: cell-based, human; conditions: Homo sapiens, HUVEC, 24 h; for viability at 0.01 µM / activity at 0.01 µM / viability at 0.1 µM / activity at 0.1 µM / viability at 1 µM / activity at 1 µM / viability at 10 µM / activity at 10 µM / viability at 100 µM / activity at 100 µM: 0.00 µM = 100.00; for viability at 0.1 µM / activity at 0.1 µM: 0.10 µM
In short: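 Read-out: multiwavelength high-content imaging of Hoechst 33342, MitoTracker Orange and calcein AM after 24 h compound exposure of confluent HUVEC monolayers. POD values were set using a one-SD cutoff from vehicle (0.5% DMSO) means; with no concentration–response, 100μM was assigned as no observable adverse effect level.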

[2] = system: iCell endothelial cells (human iPSC-derived ECs); experiment: Tube formation (tubulogenesis) assay in iCell endothelial cells, 18 h; assay type: cell-based; conditions: Homo sapiens, Endothelial cell, 18 hr; for activity at 0.1 µM: 0.10 µM
In short: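 Tube formation was measured by calcein AM imaging after overnight compound exposure (37°C, 0.5% DMSO vehicle) of human iPSC-derived ECs, 7,500/well, on reduced-growth-factor Geltrex in starvation medium. Vehicle-normalized data fitted to four-parameter logistic; POD set at one vehicle SD; without response, 100 μM taken as NOAEL.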

[3] = HUVECs, 24 hr, read-out: huvec.cyto.24hr
[4] = HUVECs, 24 hr, read-out: huvec.mito.24hr
[5] = HUVECs, 24 hr, read-out: huvec.mitoint.24hr
[6] = HUVECs, 24 hr, read-out: huvec.nma.24hr
[7] = HUVECs, 24 hrs, read-out: huvec.tc.24hrs
[8] = iPSC-EC tube formation, 0.00 µM control = 100.00, read-out: endo.mtl.18hr
[9] = iPSC-EC tube formation, 0.00 µM control = 100.00, read-out: endo.tlps.18hr
[10] = iPSC-EC tube formation, 0.00 µM control = 100.00, read-out: endo.tta.18hr
[11] = iPSC-EC tube formation, 0.00 µM control = 100.00, read-out: endo.ttl.18hr

Oc1cccc(-c2ccc(Cl)cc2)c1 [3'-OH PCB3]
viability at 0.01 µM [1, 3]: 89.2% | activity at 0.01 µM [1, 4]: 89.3% | activity at 0.01 µM [1, 5]: 101% | activity at 0.01 µM [1, 6]: 97.3% | viability at 0.1 µM [1, 3]: 100% | activity at 0.1 µM [1, 4]: 100% | activity at 0.1 µM [1, 5]: 111% | activity at 0.1 µM [1, 6]: 92.6% | viability at 1 µM [1, 3]: 94.4% | activity at 1 µM [1, 4]: 93.7% | activity at 1 µM [1, 5]: 104% | activity at 1 µM [1, 6]: 92% | viability at 10 µM [1, 3]: 70.9% | activity at 10 µM [1, 4]: 66.2% | activity at 10 µM [1, 5]: 108% | activity at 10 µM [1, 6]: 84.9% | viability at 100 µM [1, 3]: 63.7% | activity at 100 µM [1, 4]: 77.8% | activity at 100 µM [1, 5]: 19.3% | activity at 100 µM [1, 6]: 68.8% | minimal effective concentration ([1]; HUVECs, 24 hr, top concentration 100.00 µM, read-out: huvec.cyto.24hr POD): 1.1 µM | minimal effective concentration ([1]; HUVECs, 24 hr, top concentration 100.00 µM, read-out: huvec.mito.24hr POD): 0.97 µM | minimal effective concentration ([1]; HUVECs, 24 hr, top concentration 100.00 µM, read-out: huvec.mitoint.24hr POD): 41.4 µM | minimal effective concentration ([1]; HUVECs, 24 hr, top concentration 100.00 µM, read-out: huvec.nma.24hr POD): 0.04 µM | viability at 0.01 µM [1, 7]: 89.2% | viability at 0.1 µM [1, 7]: 100% | viability at 1 µM [1, 7]: 94.6% | viability at 10 µM [1, 7]: 71% | viability at 100 µM [1, 7]: 83.9% | minimal effective concentration ([1]; HUVECs, 24 hrs, top concentration 100.00 µM, read-out: huvec.tc.24hrs POD): 1.1 µM | activity at 0.01 µM [2, 8]: 98% | activity at 0.01 µM [2, 9]: 99.3% | activity at 0.01 µM [2, 10]: 119% | activity at 0.01 µM [2, 11]: 114% | activity at 0.1 µM [2, 8]: 85.4% | activity at 0.1 µM [2, 9]: 107% | activity at 0.1 µM [2, 10]: 73% | activity at 0.1 µM [2, 11]: 72.3% | activity at 1 µM [2, 8]: 88.6% | activity at 1 µM [2, 9]: 76.7% | activity at 1 µM [2, 10]: 71.5% | activity at 1 µM [2, 11]: 69.4% | activity at 10 µM [2, 8]: 59% | activity at 10 µM [2, 9]: 33.8% | activity at 10 µM [2, 10]: 39.4% | activity at 10 µM [2, 11]: 39.8% | activity at 100 µM [2, 8]: 46% | activity at 100 µM [2, 9]: 11.7% | activity at 100 µM [2, 10]: 1.49% | activity at 100 µM [2, 11]: 2.14% | minimal effective concentration ([2]; iPSC-EC tube formation, top concentration 100.00 µM, read-out: endo.mtl.18hr POD): 0.36 µM | minimal effective concentration ([2]; iPSC-EC tube formation, top concentration 100.00 µM, read-out: endo.tlps.18hr POD): 1.03 µM | minimal effective concentration ([2]; iPSC-EC tube formation, top concentration 100.00 µM, read-out: endo.tta.18hr POD): 0.49 µM | minimal effective concentration ([2]; iPSC-EC tube formation, top concentration 100.00 µM, read-out: endo.ttl.18hr POD): 0.51 µM

O=S(=O)(O)Oc1cc(Cl)c(-c2cc(Cl)ccc2Cl)cc1Cl [4-PCB 52 sulfate]
minimal effective concentration ([1]; cyto, 24 hr, read-out: POD huvec.cyto.24hr): 5.38 µM | minimal effective concentration ([1]; mito, 24 hr, read-out: POD huvec.mito.24hr): 3.31 µM | minimal effective concentration ([1]; mitoint, 24 hr, read-out: POD huvec.mitoint.24hr): 61.2 µM | minimal effective concentration ([1]; nma, 24 hr, read-out: POD huvec.nma.24hr): 33.9 µM | minimal effective concentration ([1]; tc, 24 hr, read-out: POD huvec.tc.24hr): 5.38 µM | minimal effective concentration ([2]; endothelial cells (endo), tube formation mtl, read-out: POD endo.mtl.18hr): 7.44 µM | minimal effective concentration ([2]; endothelial cells (endo), tube formation tlps, read-out: POD endo.tlps.18hr): 5.74 µM | minimal effective concentration ([2]; endothelial cells (endo), tube formation tta, read-out: POD endo.tta.18hr): 8.83 µM | minimal effective concentration ([2]; endothelial cells (endo), tube formation ttl, read-out: POD endo.ttl.18hr): 9.64 µM
